Assay results from patent US12006330B2, “Substituted macrocyclic compounds and related methods of treatment” (Alkermes, Inc., priority 2020, dated 2024).

molecular target: T1, human orexin-2 receptor (OX2R) (Homo sapiens, UniProt O43614); assay: Human OX2R IP1 assay; assay type: cell-based; conditions: T-Rex CHO cells stably overexpressing human OX2R; IP1 accumulation; 1 hr at 37 degrees C; mean EC50
T1 construct: expressed in transfected cells
T1 sequence (O43614 1-444): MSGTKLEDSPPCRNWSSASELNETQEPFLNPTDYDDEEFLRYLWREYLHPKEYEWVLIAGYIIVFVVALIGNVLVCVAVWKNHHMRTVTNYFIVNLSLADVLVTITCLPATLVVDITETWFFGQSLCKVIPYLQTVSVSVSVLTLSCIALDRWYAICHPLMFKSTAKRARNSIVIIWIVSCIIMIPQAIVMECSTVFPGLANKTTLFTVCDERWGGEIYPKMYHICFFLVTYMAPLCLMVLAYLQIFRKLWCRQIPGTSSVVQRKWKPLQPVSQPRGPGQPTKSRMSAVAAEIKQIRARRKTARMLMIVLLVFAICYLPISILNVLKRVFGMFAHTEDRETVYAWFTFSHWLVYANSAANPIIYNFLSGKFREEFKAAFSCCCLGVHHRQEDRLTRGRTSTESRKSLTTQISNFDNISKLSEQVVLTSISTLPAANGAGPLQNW
Method: T-Rex CHO cells stably overexpressing the human orexin-2 receptor (OX2R) were induced overnight with 1 μg/mL of doxycycline in a T225 flask. 24 hours post induction, cells were lifted with accutase and plated into a 384-well proxy plate at 30,000 cells/well. Cells were then treated with different test compounds in 1× stimulation buffer containing 10 mM Hepes, 1 mM CaCl2), 0.5 mM MgCl2, 4.2 mM KCl, 146 mM NaCl, 5.5 mM glucose, and 50 mM LiCl, pH 7.4, for 1 hr at 37 degrees C. Following incubation, the reaction was terminated by the addition of detection mix, which is composed of IP1-d2 and anti-IP1-cryptate diluted in lysis buffer as well as 1× stimulation buffer. The plates were allowed to incubate for 1 hour at room temperature and were then read in the EnVision® multimode plate reader, measuring inositol phosphate levels.
Cisbio IP1 is a cell-based functional assay quantifying the accumulation of inositol monophosphate (IP), a metabolite released as a result of orexin 2 receptor activation through the phospholipase C-Gq signaling pathway. This is a competitive immunoassay in which the IP1 produced by the cells upon receptor activation competes with the IP1 analog coupled to the d2 fluorophore (acceptor) for binding to an anti-IP1 monoclonal antibody labeled with Eu cryptate (donor). The measured HTRF-FRET based signal is inversely proportional to the IP1 concentration produced.
The EC50 values reported in Table 2 were obtained according to the human OX2R IP1 assay described above. Data are the mean EC50 values S.E.M. Reference Compound A is methyl (2R,3S)-3-((methylsulfonyl)amino)-2-(((cis-4-phenylcyclohexyl)oxy)methyl)-piperidine-1-carboxylate (Example 5 of PCT publication No. WO2017/135306). Reference Compound B is N-((2S,3S)-1-(2-hydroxy-2-methylpropanoyl)-2-((2,3′,5′-trifluorobiphenyl-3-yl)methyl)pyrrolidin-3-yl)methanesulfonamide (Example 483 of PCT publication No. WO2019/027058).

Row | Compound | EC50 [nM]
1 | O=C1COc2nnccc2[C@H]2CC[C@H](CC2)OC[C@H]2[C@@H](NS(=O)(=O)C3CC3)CCCN12 (stereo in doubt) [Compound 67] | 10 to 1000
2 | Cc1ccc2c(c1C)[C@H]1CC[C@H](CC1)OC[C@H]1[C@@H](NS(=O)(=O)C(C)C)CCCN1C(=O)CO2 (stereo in doubt) [Compound 76] | < 10
3 | O=C1COc2ccccc2[C@H]2CC[C@H](CC2)OC[C@H]2[C@@H](NS(=O)(=O)C3CCC3)CCCN12 (stereo in doubt) [Compound 42] | < 10
4 | Cc1c(Cl)ccc2c1[C@H]1CC[C@H](CC1)OC[C@H]1[C@@H](NS(=O)(=O)C(C)C)CCCN1C(=O)CO2 (stereo in doubt) [Compound 28] | < 10
5 | CC(C)S(=O)(=O)N[C@H]1CCCN2C(=O)COc3ncccc3[C@H]3CC[C@H](CC3)OC[C@@H]12 (stereo in doubt) [Compound 15] | < 10
6 | O=C1COc2ccccc2[C@H]2CC[C@H](CC2)OC[C@H]2[C@@H](NS(=O)(=O)CCO)CCCN12 (stereo in doubt) [Compound 19] | < 10
7 | Cc1ccnc2c1[C@H]1CC[C@H](CC1)OC[C@H]1[C@@H](NS(=O)(=O)C3CC3)CCN1C(=O)CO2 (stereo in doubt) [Compound 92] | < 10
8 | C=CS(=O)(=O)N[C@H]1CCCN2C(=O)COc3ccccc3[C@H]3CC[C@H](CC3)OC[C@@H]12 (stereo in doubt) [Compound 5] | < 10
9 | O=C1COc2ccccc2[C@H]2CC[C@H](CC2)OC[C@H]2[C@@H](NS(=O)(=O)C3CCCC3)CCCN12 (stereo in doubt) [Compound 33] | < 10
10 | O=S(=O)(N[C@H]1CCCN2CCOc3ccccc3[C@H]3CC[C@H](CC3)OC[C@@H]12)C1CC1 (stereo in doubt) [Compound 51] | 10 to 1000
11 | Cc1ccc2c(c1)OCCN1CCC[C@H](NS(C)(=O)=O)[C@@H]1CO[C@H]1CC[C@@H]2CC1 (stereo in doubt) [Compound 50] | > 1000
12 | Cc1ccnc2c1[C@H]1CC[C@H](CC1)OC[C@H]1[C@@H](NS(=O)(=O)C3CC3)CCCN1C(=O)CO2 (stereo in doubt) [Compound 62] | < 10
13 | CS(=O)(=O)N[C@H]1CCCN2C(=O)COc3ccc(C#N)cc3[C@H]3CC[C@H](CC3)OC[C@@H]12 (stereo in doubt) [Compound 46] | 10 to 1000
14 | CC(C)S(=O)(=O)N[C@H]1CCCN2CCOc3ncccc3[C@H]3CC[C@H](CC3)OC[C@@H]12 (stereo in doubt) [Compound 64] | > 1000
15 | Cc1cnc2c(c1)[C@H]1CC[C@H](CC1)OC[C@H]1[C@@H](NS(=O)(=O)C(C)C)CCCN1C(=O)CO2 (stereo in doubt) [Compound 34] | < 10
16 | Cc1ccnc2c1[C@H]1CC[C@H](CC1)OC[C@H]1[C@@H](NS(=O)(=O)C(C)C)CCCN1C(=O)CO2 (stereo in doubt) [Compound 10] | < 10
17 | Cc1cccc2c1[C@H]1CC[C@H](CC1)OC[C@H]1[C@@H](NS(=O)(=O)C3CC3)CCN1C(=O)CO2 (stereo in doubt) [Compound 70] | < 10
18 | CC(C)(C)S(=O)(=O)N[C@H]1CCCN2C(=O)COc3ccccc3[C@H]3CC[C@H](CC3)OC[C@@H]12 (stereo in doubt) [Compound 44] | 10 to 1000
19 | Cc1ccc2c(c1)OCC(=O)N1CCC[C@H](NS(C)(=O)=O)[C@@H]1CO[C@H]1CC[C@@H]2CC1 (stereo in doubt) [Compound 40] | 10 to 1000
20 | Cc1cccc2c1[C@H]1CC[C@H](CC1)OC[C@H]1[C@@H](NS(=O)(=O)C3CC3)CCCN1C(=O)CO2 (stereo in doubt) [Compound 4] | < 10
21 | CC1(S(=O)(=O)N[C@H]2CCCN3C(=O)COc4ccccc4[C@H]4CC[C@H](CC4)OC[C@@H]23)CC1 (stereo in doubt) [Compound 8] | < 10
22 | O=C1COc2ccccc2[C@H]2CC[C@H](CC2)OC[C@H]2[C@@H](NS(=O)(=O)C3COC3)CCCN12 (stereo in doubt) [Compound 80] | < 10
23 | Cc1c(Cl)ccc2c1[C@H]1CC[C@H](CC1)OC[C@H]1[C@@H](NS(=O)(=O)C3CC3)CCCN1C(=O)CO2 (stereo in doubt) [Compound 75] | < 10

Row | Compound | EC50 [nM]
24 | CC(C)S(=O)(=O)N[C@H]1CCCN2C(=O)COc3ncc(Cl)cc3[C@H]3CC[C@H](CC3)OC[C@@H]12 (stereo in doubt) [Compound 35] | < 10
25 | C[C@H]1C[C@H](NS(C)(=O)=O)C2CO[C@H]3CC[C@H](CC3)c3ccccc3OCC(=O)N21 (stereo in doubt) [Compound 111] | 10 to 1000
26 | Cc1ncnc2c1[C@H]1CC[C@H](CC1)OC[C@H]1[C@@H](NS(=O)(=O)C(C)C)CCCN1C(=O)CO2 (stereo in doubt) [Compound 69] | < 10
27 | CS(=O)(=O)N[C@H]1CCCN2C(=O)COc3ccc(O)cc3[C@H]3CC[C@H](CC3)OC[C@@H]12 (stereo in doubt) [Compound 96] | < 10
28 | Cc1ccc2c(c1C)[C@H]1CC[C@H](CC1)OC[C@H]1[C@@H](NS(C)(=O)=O)CCCN1C(=O)CO2 (stereo in doubt) [Compound 78] | < 10
29 | Cc1ccc2c(c1)[C@H]1CC[C@H](CC1)OC[C@H]1[C@@H](NS(C)(=O)=O)CCCN1CCO2 (stereo in doubt) [Compound 54] | 10 to 1000
30 | Cc1ncnc2c1[C@H]1CC[C@H](CC1)OC[C@H]1[C@@H](NS(=O)(=O)C3CC3)CCCN1C(=O)CO2 (stereo in doubt) [Compound 68] | < 10
31 | O=C1COc2ncncc2[C@H]2CC[C@H](CC2)OC[C@H]2[C@@H](NS(=O)(=O)C3CC3)CCCN12 (stereo in doubt) [Compound 97] | 10 to 1000
32 | O=C1COc2ccccc2[C@H]2CC[C@H](CC2)OC[C@H]2[C@@H](NS(=O)(=O)C(F)F)CCCN12 (stereo in doubt) [Compound 7] | < 10
33 | CC(C)S(=O)(=O)N[C@H]1CCCN2CCOc3ccccc3[C@H]3CC[C@H](CC3)OC[C@@H]12 (stereo in doubt) [Compound 52] | > 1000
34 | O=C1COc2ccccc2[C@H]2CC[C@H](CC2)OC[C@H]2[C@@H](NS(=O)(=O)C3COC3)CCN12 (stereo in doubt) [Compound 110] | < 10
35 | Cc1ccc2c(c1)[C@H]1CC[C@H](CC1)OC[C@H]1[C@@H](NS(=O)(=O)C3CC3)CCCN1C(=O)CO2 (stereo in doubt) [Compound 13] | < 10
36 | Cc1ccnc2c1[C@H]1CC[C@H](CC1)OC[C@H]1[C@@H](NS(C)(=O)=O)CCCN1C(=O)CO2 (stereo in doubt) [Compound 12] | < 10
37 | O=C1COc2ccccc2[C@H]2CC[C@H](CC2)OC[C@H]2[C@@H](NS(=O)(=O)C3CC3)CCCN12 (stereo in doubt) [Compound 1] | < 10
38 | Cc1ccc2c(c1C)[C@H]1CC[C@H](CC1)OC[C@H]1[C@@H](NS(=O)(=O)C3CC3)CCCN1C(=O)CO2 (stereo in doubt) [Compound 77] | < 10
39 | CC(C)(C)S(=O)(=O)N[C@H]1CCCN2CCOc3ccccc3[C@H]3CC[C@H](CC3)OC[C@@H]12 (stereo in doubt) [Compound 56] | > 1000
40 | O=S(=O)(CC1CC1)N[C@H]1CCCN2CCOc3ccccc3[C@H]3CC[C@H](CC3)OC[C@@H]12 (stereo in doubt) [Compound 59] | 10 to 1000
41 | O=C1COc2ccc(Cl)cc2[C@H]2CC[C@H](CC2)OC[C@H]2[C@@H](NS(=O)(=O)C3CC3)CCCN12 (stereo in doubt) [Compound 16] | < 10
42 | CS(=O)(=O)N[C@H]1CCCN2C(=O)COc3cc(C#N)ccc3[C@H]3CC[C@H](CC3)OC[C@@H]12 (stereo in doubt) [Compound 47] | 10 to 1000
43 | CC(C)S(=O)(=O)N[C@H]1CCN2C(=O)COc3ccccc3[C@H]3CC[C@H](CC3)OC[C@@H]12 (stereo in doubt) [Compound 106] | < 10
44 | O=C1COc2cccc(F)c2[C@H]2CC[C@H](CC2)OC[C@H]2[C@@H](NS(=O)(=O)C3CC3)CCCN12 (stereo in doubt) [Compound 74] | < 10
45 | Cc1c(Cl)ccc2c1[C@H]1CC[C@H](CC1)OC[C@H]1[C@@H](NS(C)(=O)=O)CCCN1C(=O)CO2 (stereo in doubt) [Compound 31] | < 10
46 | CC1(S(=O)(=O)N[C@H]2CCCN3CCOc4ccccc4[C@H]4CC[C@H](CC4)OC[C@@H]23)CC1 (stereo in doubt) [Compound 58] | 10 to 1000
